Results from patent US20170239323A1, “ORITAVANCIN FORMULATIONS” (The Medicines Company, priority 2016, published 2017).

Assay: pH adjustment of oritavancin/HPCD solution with 1N NaOH: visual observations
Assay type: physicochemical
Settings: for Observations: 20% w/v HPCD reconstitution (3 mL aliquot)
Method: Reconstituting Orbactiv 400 mg (Oritavancin) in 20% w/v HPCD, diluting in saline then adjusting pH. The 50 mg/mL solution of oritavancin in 20% w/v HPCD (described in Table 3) was further diluted in 0.9% saline to 6 mg/mL in a small glass vial. The pH was adjusted using 1N NaOH. NaOH was added to the oritavancin solution in […] and vortexed. Visual observations and pH were recorded (Table 5).
Reconstituting Orbactiv 400 mg (Oritavancin) in 50% w/v HPCD aqueous solution, adjusting pH then diluting in saline. 6.269 g of HPCD was dissolved in 12.538 mL of water to make a 50% w/v solution (pH=7.23). Seven (7) mL of the 50% w/v solution was added to a 400 mg vial of Orbactiv for a target oritavancin concentration of 57.14 mg/mL. […] A 2 mL aliquot of 57.14 mg/mL was removed from the vial and placed in a small glass vial. The pH was adjusted to 6.5 using 1N NaOH. NaOH was added to the oritavancin solution in 5 μL increments and vortexed. Visual observations and pH were recorded (Table 6).
(§1) Reconstituting Orbactiv 400 mg (Oritavancin) in 50% w/v aqueous HPCD, adjusting pH then diluting in saline. 6.112 g of HPCD was dissolved in 12.224 mL of water to make a 50% w/v solution (pH=6.74). Seven (7) mL of the 50% w/v HPCD solution was added to a 400 mg vial of Orbactiv for a target oritavancin concentration of 57.14 mg/mL. […] A 3 mL aliquot of 57.14 mg/mL was removed from the vial and placed in a small glass vial. The pH was adjusted to 7 using 1N NaOH. NaOH was added to the oritavancin solution in 5 μL increments and vortexed. Visual observations and pH were recorded (Table 8).
as §1, with “20%” for “50%”, “3.555” for “6.112”, “17.775” for “12.224”, “(pH=6.88).” for “(pH=6.74).”, “recorded.” for “recorded”, “10).” for “8).”

CN[C@H](CC(C)C)C(=O)N[C@H]1C(=O)N[C@@H](CC(N)=O)C(=O)N[C@H]2C(=O)N[C@H]3C(=O)N[C@H](C(=O)N[C@H](C(=O)O)c4cc(O)cc(O)c4-c4cc3ccc4O)[C@H](O[C@H]3C[C@](C)(N)[C@@H](O)[C@H](C)O3)c3ccc(c(Cl)c3)Oc3cc2cc(c3O[C@@H]2O[C@H](CO)[C@@H](O)[C@H](O)[C@H]2O[C@H]2C[C@](C)(NCc3ccc(-c4ccc(Cl)cc4)cc3)[C@@H](O)[C@H](C)O2)Oc2ccc(cc2Cl)[C@H]1O [Oritavancin]
pH to which solution could be adjusted without any sign of precipitation (57 mg/mL in 20% w/v aqueous HPCD, over 24 hours): 7
pH to which solution could be adjusted without any sign of precipitation (57 mg/mL in 50% w/v aqueous HPCD, over 24 hours): 7
pH to which solution could be adjusted without any sign of precipitation (57 mg/mL in 50% w/v aqueous HPCD, over an hour): 6.3
Observations (1N NaOH 0 μL, pH 3.95, oritavancin 57.14 mg/mL): Clear, colorless solution.
Observations (1N NaOH 5 μL, pH 4.11, oritavancin 57.04 mg/mL): Clear, colorless solution
Observations (1N NaOH 10 μL, pH 4.31, oritavancin 56.94 mg/mL): Clear, colorless solution
Observations (1N NaOH 15 μL, pH 4.68, oritavancin 56.84 mg/mL): Clear, colorless solution
Observations (1N NaOH 20 μL, pH 4.89, oritavancin 56.74 mg/mL): Clear, colorless solution
Observations (1N NaOH 25 μL, pH 5.19, oritavancin 56.64 mg/mL): Clear, colorless solution
Observations (1N NaOH 30 μL, pH 5.29, oritavancin 56.54 mg/mL): Clear, colorless solution
Observations (1N NaOH 35 μL, pH 5.45, oritavancin 56.44 mg/mL): Clear, colorless solution.
Observations (1N NaOH 40 μL, pH 5.57, oritavancin 56.34 mg/mL): Clear, colorless solution
Observations (1N NaOH 45 μL, pH 5.63, oritavancin 56.23 mg/mL): Clear, colorless solution
Observations (1N NaOH 50 μL, pH 5.69, oritavancin 56.13 mg/mL): Clear, colorless solution
Observations (1N NaOH 55 μL, pH 5.82, oritavancin 56.03 mg/mL): Clear, colorless solution
Observations (1N NaOH 60 μL, pH 5.87, oritavancin 55.92 mg/mL): Clear, colorless solution
Observations (1N NaOH 65 μL, pH 5.95, oritavancin 55.82 mg/mL): Clear, colorless solution.
Observations (1N NaOH 70 μL, pH 6.01, oritavancin 55.71 mg/mL): Clear, colorless solution
Observations (1N NaOH 75 μL, pH 6.06, oritavancin 56.60 mg/mL): Clear, colorless solution
Observations (1N NaOH 80 μL, pH 6.10, oritavancin 55.49 mg/mL): Clear, colorless solution
Observations (1N NaOH 85 μL, pH 6.18, oritavancin 55.38 mg/mL): Clear, colorless solution
Observations (1N NaOH 90 μL, pH 6.20, oritavancin 55.28 mg/mL): Clear, colorless solution
Observations (1N NaOH 95 μL, pH 6.24, oritavancin 55.17 mg/mL): Clear, colorless solution
Observations (1N NaOH 100 μL, pH 6.28, oritavancin 55.06 mg/mL): Clear, colorless solution
Observations (1N NaOH 105 μL, pH 6.34, oritavancin 54.95 mg/mL): Clear, colorless solution
Observations (1N NaOH 110 μL, pH 6.38, oritavancin 54.85 mg/mL): Clear, colorless solution
Observations (1N NaOH 115 μL, pH 6.44, oritavancin 54.74 mg/mL): Clear, colorless solution
Observations (1N NaOH 120 μL, pH 6.49, oritavancin 54.64 mg/mL): Clear, colorless solution.
Observations (1N NaOH 125 μL, pH 6.52, oritavancin 54.52 mg/mL): Clear, colorless solution
Observations (1N NaOH 130 μL, pH 6.54, oritavancin 54.41 mg/mL): Clear, colorless solution
Observations (1N NaOH 135 μL, pH 6.57, oritavancin 54.30 mg/mL): Clear, colorless solution
Observations (1N NaOH 140 μL, pH 6.62, oritavancin 54.19 mg/mL): Clear, colorless solution
Observations (1N NaOH 145 μL, pH 6.65, oritavancin 54.09 mg/mL): Clear, colorless solution
Observations (1N NaOH 150 μL, pH 6.69, oritavancin 53.97 mg/mL): Clear, colorless solution
Observations (1N NaOH 155 μL, pH 6.72, oritavancin 53.86 mg/mL): Clear, colorless solution
Observations (1N NaOH 160 μL, pH 6.76, oritavancin 53.75 mg/mL): Clear, colorless solution.
Observations (1N NaOH 165 μL, pH 6.80, oritavancin 53.63 mg/mL): Clear, colorless solution
Observations (1N NaOH 170 μL, pH 6.82, oritavancin 53.51 mg/mL): Clear, colorless solution
Observations (1N NaOH 175 μL, pH 6.86, oritavancin 53.40 mg/mL): Clear, colorless solution
Observations (1N NaOH 180 μL, pH 6.90, oritavancin 53.28 mg/mL): Clear, colorless solution
Observations (1N NaOH 185 μL, pH 6.93, oritavancin 53.17 mg/mL): Clear, colorless solution
Observations (1N NaOH 190 μL, pH 6.98, oritavancin 53.05 mg/mL): Clear, colorless solution
Observations (1N NaOH 195 μL, pH 7.03, oritavancin 52.94 mg/mL): Clear, colorless solution.
